Experimental data: publication PMC11729425 (ACS Pharmacology & Translational Science, 2024)

How the values were obtained:
Aged C57BL/6J mice [1] = assay: CK level after 90 min downhill running; assay type: in vivo, C57BL/6JRj mice; conditions: 1 mg/kg in the food, week 15, trend for improvement
Procedure: Figure 2 Chronic oral administration of ALT-007 enhances physical fitness in aged mice. (A) Schematic representation of the study time-line. Compounds were mixed in the food, ALT-007 at 1 mg/kg and DMSO at equivalent volume. At week 0: young mice were 2 months old, and the old mice were 18 months old. (B) Body weight curve over the course of the study (20 weeks). (C) Food intake curve throughout the study. (D–G) Organ mass at sacrifice (week 20), normalized to body weight. (H) Oral glucose tolerance test (oGTT) performed at week 17. (I) Best performance during hanging time normalized to BW at week 7. (J) Best performance during grip strength on the 4 limbs normalized to BW at week 8. (K) Rotarod’s best latency time at week 9. (L) VO2Max performed at week 11. (M) Uphill maximum running time performed at week 13. N = 9 per group. (N) Difference of CK level after—before 90 min downhill running performed at week 15. N = 6 in young, N = 8 in DMSO and N = 7 in ALT-007-treated groups. (O–Q) Measurement of kCAL/h at night (O) and at day (P) and movement recording in x, y, z (Q) during 24 h in CLAMS at week 19. N = 12 per group unless specified otherwise. Quantitative data are expressed as median with IQR. *P < 0.05, **P < 0.01, ***P < 0.001, ****P < 0.0001. ANOVA test was used for multiple comparison, and the Mann–Whitney U test when comparing 2 groups. All tests were 2 sided.

Aged C57BL/6J mice [2] = assay: Lean mass (echoMRI) and muscle weight at sacrifice in aged mice; assay type: in vivo, C57BL/6JRj mice; conditions: 1 mg/kg in the food
Procedure: At the first and last (week 20) after experiment onset (as indicated in Figure 2A), body composition analysis was conducted. Each mouse was placed for short in an Echo-MRI (magnetic resonance imaging) machine, specifically the 3-in-1 model from Echo Medical Systems. This procedure recorded lean mass, along with total body weight, with each measurement taking approximately 1 min per individual.
Prior to sacrifice, mice were fasted for 4 h in the morning. Animals were sacrificed between 1:30 and 4 p.m. Mice were anesthetized with isoflurane, followed by a complete blood draw from the vena cava and perfusion with cold phosphate-buffered saline. Immediately thereafter, various tissues including liver, kidney, spleen, heart, brain, gastrocnemius muscle and tibialis anterior muscle were harvested, weighted and promptly flash-frozen in liquid nitrogen.

[3] = test system: sphingolipids in gastrocnemius muscle and brain; assay: Sphingolipid and deoxysphingolipid analysis in gastrocnemius muscle and brain of aged mice (20 weeks); assay type: in vivo, C57BL/6JRj mice; conditions: 1 mg/kg in the food
Procedure: Figure 4 1-deoxy-SL species accumulate in muscle and brain tissues during aging and contribute to cellular protein aggregation. (A,B) Heat map representing the abundance of sphingolipids in (A) gastrocnemius muscle and (B) brain with and without treatment with ALT-007 in mice (ALT-007 at 1 mg/kg; DMSO at equivalent volume for 20 weeks). N = 8 per group. Data are shown as log2 fold change. Adjusted P values are indicated as follows: *adjusted P < 0.05; **adjusted P < 0.01; ***adjusted P < 0.001. (C,D) Representative images and quantification of protein aggregates upon 1-deoxy-SA (C) and P053 treatment (D) in human primary IBM cells; both were administered at 4 μM for 24 h. N = 8 per group. (E) Analysis of 1-Deoxy-Spa and 1-DeoxyCer 24:1 levels in myoblasts from healthy and IBM patients. N = 3 per group. (C–E) Quantitative data are expressed as median with IQR and compared using the Mann–Whitney U test. All tests were 2 sided. *P < 0.05, **P < 0.01, ***P < 0.001.
Sphingolipid and deoxysphingolipid measurements were performed by liquid chromatography–tandem mass spectrometry (LC–MS/MS) analysis as described in previous studies.[12],[13],[28]−[30] […]
ESI source conditions were used as follows: dry gas temperature, 230 °C; nebulizer, 35 psi and flow rate of 14 L min^–1; sheath gas temperature, 400 °C and flow rate of 12 L min^–1; nozzle voltage, 500 V; and capillary voltage, 4000 V. Dynamic multiple reaction monitoring was used as the acquisition mode with a total cycle time of 500 ms. […] Raw LC–MS/MS data were processed applying Agilent Quantitative Analysis software (version B.07.00, MassHunter Agilent Technologies).
Absolute quantification was based on calibration curves and stable isotope-labeled internal standards to determine the response factor for each metabolite, with linearity assessed using 12-point range standard curves. […] Sphingolipid concentrations were reported and protein concentrations in protein pellets (measured by BCA, Thermo Fisher Scientific) were determined after metabolite extraction. […]

[4] = design: method as in PMID 29669694; conditions: compared to Myriocin; cited from earlier work

## COc1cc(C(=O)N2CC[C@H](NC(=O)c3ccccc3OC(F)(F)F)c3c2cnn3C(C)C)cnc1OC [ALT-007]
Aged C57BL/6J mice [1]
  creatine kinase in the blood after a downhill running test: nor did it reduce
Aged C57BL/6J mice [2]; after 11 weeks
  lean mass measured by echoMRI: increased lean mass
Aged C57BL/6J mice [2]; at sacrifice after 20 weeks
  muscle weight (gastrocnemius, tibialis anterior): increased muscle weight
[3]
  1-deoxy-SLs in the brain: attenuated the age-related increase in 1-deoxy-SLs
  total ceramides in the gastrocnemius: lower levels of total ceramides
  very long chain 1-deoxy-SLs (1-deoxyCer 22, 1-deoxyCer 24:1, N-C24:1-deoxysphinganine) in the gastrocnemius muscle: attenuated
[4]
  metabolic stability: improved
